In article PMC8230474, “Synthesis of Novel Acyl Derivatives of 3-(4,5,6,7-Tetrabromo-1H-benzimidazol-1-yl)propan-1-ols—Intracellular TBBi-Based CK2 Inhibitors with Proapoptotic Properties” (International Journal of Molecular Sciences, 2021):

Assays:
Format in all cases: cell-based, human
[1] = system: protein kinase CK2 in MCF-7 cells; assay: Intracellular inhibition of CK2, Western blot of p-Ser529 p65 and p-Ser129 Akt1, MCF-7
Text: (§1) We observed an inhibition of CK2 in both cell lines; however, the lower efficiency of CK2 inhibition was detected in MCF-7 considering the extent of Akt1 phosphorylation. The relative level of the phosphorylation of the tested proteins in MDA-MB-231 cells was in the range of 0.32 to 0.80 for p-Ser529 p65 and 0.41 to 0.73 for p-Ser129 Akt1, whereas in MCF-7 cells it was in the range of 0.33 to 0.78 for p-Ser529 p65 and 0.82 to 1.23 for p-Ser129 Akt1, respectively. The lowest phosphorylation levels of the tested proteins were detected in MDA-MB-231 cells for compound 6b with the relative level of 0.41 for Ser129 Akt1 as well as for compound 6c with the relative level of 0.32 for p-Ser529 p65. Among the tested proteins, the lowest extent of phosphorylation in MCF-7 cells was detected for 6b with the relative level of 0.33 for p-Ser529 p65, and for 6a with the relative level of 0.82 for Ser129 Akt1.
Considering an inefficient inhibition of CK2 in MCF-7, we evaluated an inhibition of CK2 in this cell line after 72 h. […] The relative levels were in the range of 0.17 to 0.8 for p-Ser529 p65 and 0.19 to 0.79 for p-Ser129 Akt1.
The MCF-7 cells growing exponentially were seeded at 4.8 × 10^5 cells in 6-cm-diameter plates. Subsequently, compounds were added in a final concentration of 0.5% DMSO. After incubation, floating cells were collected and cell monolayer was washed three times in ice-cold PBS and the cells were scraped, combined with floating cells and lysed in RIPA buffer consisting of 50 mM Tris-HCl (pH 7.4), 1% NP-40, 0.5% sodium deoxycholate, 0.1% SDS, 150 mM NaCl, 2 mM EDTA, 50 mM NaF, 0.2 mM sodium orthovanadate, and protease inhibitors cocktail. Subsequently, cells were sonicated (three times for 15 s), centrifuged at 20,000× g for 15 min at 4 °C, and the supernatants were collected and stored at −80 °C. The protein concentration was determined using Bradford assay. Then, supernatants were incubated with the Laemmli buffer for 5 min at 98 °C. Equal amounts of total protein (10 to 20 μg) were analyzed by SDS-PAGE, and subsequently, Western blotting was performed using primary antibodies in blocking buffer containing either 3% BSA (bovine serum albumin) or 3% milk in TBS-T (Tris-buffered saline (10 mM Tris-HCl (pH 8), 150 mM NaCl) containing 0.1% Tween 20 or 0.2% Triton X-100) for 1 h. After overnight incubation at 4 °C with the primary antibodies, the membranes were washed with TBS-T and probed with the respective secondary antibodies. The ECL substrate was used for detection and immunoblots were scanned using G Box Chemi (Syngene, Cambridge, UK) with GeneSys software (Syngene, Cambridge, UK) or were developed with the use of X-rays films. UV-irradiated Jurkat cells were used as a positive control in Western blot analysis of c-PARP1. After 2 h, one-minute UV-irradiated Jurkat leukemic T-cell line was lysed and subjected to analysis.
For densitometry, immunoblots were quantified using the Fiji distribution of the ImageJ 1.52a software (National Institutes of Health, Bethesda, MD, USA, and the University of Wisconsin, Madison, WI, USA). Phosphorylated protein densities were normalized to GAPDH densities, assuming 1 for untreated cells and then they were converted to a percent of the appropriate control.

[2] = system: MCF-7 cells; assay: Cleaved PARP1 Western blot, MCF-7; conditions: MCF-7, 72 h treatment, compound at its EC50
Method: In order to evaluate the proapoptotic properties of the newly synthesized derivatives, we analyzed the level of cleaved PARP1 [c-PARP1, nuclear poly (ADP-ribose) polymerase 1], the hallmark of apoptotic cells.
Considering the lack of significant effect of the tested compounds in MCF-7 cells after 24-h treatment, we additionally evaluated c-PARP1 level in this cell line after 72 h of treatment. […] It should be noted that the highest level of c-PARP up to almost 20-fold higher than in the control was detected in the cell culture treated with a derivative 6b.
The MCF-7 cells growing exponentially were seeded at 4.8 × 10^5 cells in 6-cm-diameter plates. Subsequently, compounds were added in a final concentration of 0.5% DMSO. […] The protein concentration was determined using Bradford assay. […] Equal amounts of total protein (10 to 20 μg) were analyzed by SDS-PAGE, and subsequently, Western blotting was performed using primary antibodies in blocking buffer containing either 3% BSA (bovine serum albumin) or 3% milk in TBS-T (Tris-buffered saline (10 mM Tris-HCl (pH 8), 150 mM NaCl) containing 0.1% Tween 20 or 0.2% Triton X-100) for 1 h. […]
(§2) For densitometry, immunoblots were quantified using the Fiji distribution of the ImageJ 1.52a software (National Institutes of Health, Bethesda, MD, USA, and the University of Wisconsin, Madison, WI, USA). […]

[3] = system: MCF-7 cells; assay: Annexin V-FITC/PI flow cytometry, MCF-7; conditions: MCF-7, 72-h treatment, compound at its EC50
Method: Additionally, assaying annexin V-binding to phosphatidylserine by means of flow cytometry confirmed that derivatives 3c and 6a–c induced apoptosis in both cell lines (Figure 9, Figure S3).
MCF-7 cells were seeded in six-well plates at 1.5 × 10^5 cells/well. […] Then, the plates were incubated for 24 h or 72 h. After exposure to the examined compounds, the floating cells were collected, and monolayer cell culture was trypsinized. The cells were centrifugated at 200× g at 4 °C for 5 min, washed twice in cold phosphate-buffered saline (PBS), and subsequently suspended in binding buffer at 1 × 10^6 cells/mL. Subsequently, 100-μL aliquots of the cell suspension were labeled according to the kit manufacturer’s instructions. Briefly, annexin V-fluorescein isothiocyanate and propidium iodide (BD Biosciences, Pharmingen, San Diego, CA, USA) were added to the cell suspension, and the mixture was vortexed and then incubated for 15 min at RT in the dark. A cold binding buffer (900 μL) was then added and the cells were vortexed again and kept on ice. Flow cytometric measurements were performed within 1 h after labeling. Viable, necrotic, early, and late apoptotic cells were detected by flow cytometry using CyFlow Cube 8 (Sysmex, Norderstedt, Germany) flow cytometer.

[4] = system: protein kinase CK2 in MDA-MB-231 cells; assay: Intracellular inhibition of CK2, Western blot of p-Ser529 p65 and p-Ser129 Akt1, MDA-MB-231; conditions: MDA-MB-231, 24 h treatment, compound at its 72-h EC50, relative to untreated control
Text: as §1
The MCF-7 cells growing exponentially were seeded at 4.8 × 10^5 cells in 6-cm-diameter plates. Subsequently, compounds were added in a final concentration of 0.5% DMSO. […] The protein concentration was determined using Bradford assay. […]
as §2

[5] = MCF-7, 72 h treatment, compound at its EC50, relative to untreated control

| Structure (SMILES) | relative level of p-Ser129 Akt1 [1, 5] | relative level of p-Ser529 p65 [1, 5] | level of c-PARP1 relative to control [2] | apoptotic cells (early and late apoptosis) [3] | relative level of p-Ser129 Akt1 [4] | relative level of p-Ser529 p65 ([1]; MCF-7, 24 h treatment, compound at its 72-h EC50, relative to untreated control) |
| --- | --- | --- | --- | --- | --- | --- |
| CCCCCCCC(=O)OCCCn1cnc2c(Br)c(Br)c(Br)c(Br)c21 [Compound 3c, 3-(4,5,6,7-Tetrabromo-1H-benzimidazol-1-yl)propyl octanoate] | 0.19 | 0.17 | significant increase |  |  |  |
| CCCCCC(=O)OCCCn1c(C)nc2c(Br)c(Br)c(Br)c(Br)c21 [Compound 6b, (4,5,6,7-Tetrabromo-2-methyl-1H-benzimidazol-1-yl)propyl hexanoate] |  |  | ~20 fold | 57.5% | 0.41 | 0.33 |
